Measurements: patent publication US20230365488A1, “TRUXILLIC ACID MONOESTER-DERIVATIVES AS SELECTIVE FABP5 INHIBITORS AND PHARMACEUTICAL COMPOSITIONS AND USES THEREOF” (The Research Foundation for The State University of New York, priority 2020, published 2023)

Legend:
[1] = molecular target: FABP7 (Homo sapiens (Human), UniProt O15540); assay: FABP7 fluorescent probe displacement binding assay; details: average ± S.E. of at least three independent experiments
[2] = system: HepG2 (human liver cancer) cells; assay: Cytotoxicity (MTT) assay, HepG2 (Example 5); assay type: cell-based; details: 72-hour incubation, 1% FBS
[3] = system: WI-38 (human normal lung fibroblast) cells; assay: Cytotoxicity (MTT) assay, WI-38 (Example 5); assay type: cell-based; details: 72-hour incubation, 1% FBS
[4] = system: PC-3 (human metastatic prostate cancer) cells; assay: Cytotoxicity (MTT) assay, PC-3 (Example 5); assay type: cell-based; details: 72-hour incubation, 1% FBS, read-out: PC3 IC50
[5] = molecular target: FABP3 (Homo sapiens (Human), UniProt P05413); assay: FABP3 fluorescent probe displacement binding assay; details: average ± S.E. of at least three independent experiments
FABP3, sequence (P05413 whole entry): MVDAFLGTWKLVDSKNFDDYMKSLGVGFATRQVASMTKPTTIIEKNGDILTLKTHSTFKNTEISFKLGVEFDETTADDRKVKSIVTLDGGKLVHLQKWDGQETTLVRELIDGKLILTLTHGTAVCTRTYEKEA

[6] = molecular target: FABP5 (Homo sapiens (Human), UniProt Q01469); assay: FABP5 fluorescent probe displacement binding assay; details: for Ki: average ± S.E. of at least three independent experiments; for FABP3 Ki/FABP5 Ki: selectivity ratio FABP3 over FABP5
FABP5, sequence (Q01469 whole entry): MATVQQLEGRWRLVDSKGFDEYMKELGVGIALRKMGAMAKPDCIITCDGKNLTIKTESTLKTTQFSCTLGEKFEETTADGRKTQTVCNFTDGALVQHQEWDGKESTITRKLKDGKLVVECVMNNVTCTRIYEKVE

FABP7, sequence (O15540 whole entry): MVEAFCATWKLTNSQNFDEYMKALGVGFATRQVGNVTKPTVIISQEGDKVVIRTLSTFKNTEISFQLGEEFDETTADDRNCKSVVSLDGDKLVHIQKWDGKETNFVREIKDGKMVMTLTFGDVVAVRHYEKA

| Ki [1] | Ki [5] | Ki [6] | FABP3 Ki/FABP5 Ki [6] | SMILES | IC50 [2] | IC50 [3] | IC50 [4] |
| --- | --- | --- | --- | --- | --- | --- | --- |
| 1.78 ± 0.45 µM | 6.86 ± 0.07 µM | 1.26 ± 0.12 µM | 5.4 | COc1ccccc1[C@H]1[C@H](C(=O)O)[C@H](c2ccccc2OC)[C@@H]1C(=O)Oc1cccc(-c2cccc3c2OCCO3)c1 (racemic) [Compound 2c, (±)-γ-3-((3-(2,3-dihydrobenzo[b][1, 4]dioxin-5-yl)phenoxy)carbonyl)-2,4-di(2-methoxyphenyl)cyclobutane-1-carboxylic acid] | 16.4 µM | 52.1 µM | 10.1 µM |
| 0.68 ± 0.16 µM | 3.4 ± 0.54 µM | 1.65 ± 0.22 µM | 2.1 | O=C(O)[C@@H]1C(c2ccccc2)[C@H](C(=O)OCc2ccccc2-c2ccccc2)[C@H]1c1ccccc1 (mixture of isomers) [Compound 3c, (±) -ε-3-(1,1′-biphenyl-2-ylmethoxycarbonyl)-2,4-diphenylcyclobutane-1-carboxylic acid] | 13.8 µM | 22.2 µM | 15 µM |

Continued, molecule first:

| SMILES | Ki [1] | Ki [5] | Ki [6] | FABP3 Ki/FABP5 Ki [6] | IC50 [2] | IC50 [3] | IC50 [4] |
| --- | --- | --- | --- | --- | --- | --- | --- |
| COc1ccccc1[C@H]1[C@H](C(=O)O)[C@H](c2ccccc2OC)[C@H]1C(=O)OCc1cccc2ccccc12 (racemic) [Compound 1q, (±)-α-2,4-bis(2-methoxyphenyl)-3-(naphthalen-1-ylmethoxycarbonyl)cyclobutane-1-carboxylic acid] | 8.04 ± 0.71 µM | 52.6 ± 8.62 µM | 2.15 ± 0.17 µM | 24.5 | 12.4 µM | 20.3 µM | 11.3 µM |
| O=C1CCc2cc(-c3cccc(OC(=O)[C@@H]4C(c5ccccc5)[C@@H](C(=O)O)[C@H]4c4ccccc4)c3)ccc2N1 (mixture of isomers) [Compound 1h, (±)-α-2,4-diphenyl-3-[3-(2-oxo-1,2,3,4-tetrahydroquinolin-6-yl)phenoxycarbonyl]cyclobutane-1-carboxylic acid] | 0.7 ± 0.03 µM | 8.11 ± 1.67 µM | 0.74 ± 0.06 µM | 10.9 | 7.89 µM | 24 µM | 4.93 µM |
| COc1ccccc1[C@H]1[C@H](C(=O)O)[C@H](c2ccccc2OC)[C@H]1C(=O)Oc1ccccc1-c1ccccc1 (racemic) [Compound 1o, (±)-α-3-(1,1′-biphenyl-2-yloxycarbonyl)-2,4-di (2-methoxyphenyl)cyclobutane-1-carboxylic acid] | 1.36 ± 0.23 µM | 0.21 ± 0.09 µM | 1.59 ± 0.24 µM | 0.13 | 9.43 µM | > 100 µM | 8.69 µM |
| COc1ccccc1C1[C@@H](C(=O)O)[C@@H](c2ccccc2OC)[C@@H]1C(=O)Oc1cccc(-c2ccc3c(c2)OCCO3)c1 (mixture of isomers) [Compound 1m] | 2.25 ± 0.13 µM | 2.79 ± 0.85 µM | 1.56 ± 0.19 µM | 1.8 | 11.2 µM | 49.5 µM | 7.25 µM |
| COc1ccccc1C1[C@@H](C(=O)O)[C@@H](c2ccccc2OC)[C@@H]1C(=O)Oc1cccc(-c2cccc3c2OCCO3)c1 (mixture of isomers) [Compound 1g, (±)-α-3-[3-(2,3-dihydrobenzo[b][1,4]dioxin-5-yl)phenoxycarbonyl]-2,4-di(2-methoxyphanyl)cyclobutane-1-carboxylic acid] | 0.91 ± 0.03 µM | 4.02 ± 1.04 µM | 0.41 ± 0.15 µM | 9.8 | 8.87 µM | 49.8 µM | 4.53 µM |
| COc1ccccc1C1[C@@H](C(=O)O)[C@@H](c2ccccc2OC)[C@@H]1C(=O)Oc1cccc(-c2ccc(F)cc2)c1 (mixture of isomers) [Compound 1e, (±)-α-2,4-di (2-methoxyphenyl)-3-[3-(4-fluorophenyl)phenoxycarbonyl]cyclobutane-1-carboxylic acid] | 0.99 ± 0.53 µM | 2.28 ± 0.36 µM | 1.03 ± 0.11 µM | 2.2 | 9.41 µM | 27.3 µM | 6.79 µM |
